Source: PMC9944328 (Nature Communications, 2023)
Like-named read-outs stand apart in the source and are kept apart here.

System: SSTR2 mutants
Assay: SSTRs Gi-mediated cAMP inhibition, GloSensor, HEK293, 5 μM forskolin, 15 min room temperature (SSTR2 mutants)
Type: cell-based, human
Set-up: Best-fit Bottom, cAMP inhibition / Best-fit Top, cAMP inhibition / Span, cAMP inhibition / Bottom (best-fit value) / Top (best-fit value) / Span (best-fit value) / Span (best-fit) / Bottom (best-fit) / Top (best-fit) / Best-fit Bottom / Best-fit Top / Best-fit Span / Top / Span: scale not given here
Description: The levels of the intracellular 3′, 5′-cyclic AMP (cAMP) were measured by the GloSensor cAMP assay (Promega) as described in the previous studies[28],[41] which has been widely used. The human full-length SSTRs and mutants were cloned into the pcDNA3.1+ vector with a HA signal sequence followed by a Flag tag at the N-terminus. HEK293 cells (ATCC, CRL-1573) were seeded into 6-well microplates at a density of 1.0 × 10^6 cells/well and cultured for 24 h at 37 °C with 5% CO2. Cells were then co-transfected with SSTR wild-type or mutants and GloSensor plasmids. After 24 h of transfection, the cells were dissociated with TrypLE™ Express Enzyme (1X) (Thermo Fisher Scientific) and collected by centrifugation at 500 × g for 5 min. Then the collected cells were suspended in Hank’s balanced salt solution [HBSS (Thermo Fisher Scientific)] supplemented with […] (YEASEN), and then the suspension cells were seeded into 96-well plates with 90 μl/well. After incubating at room temperature for 40 min, 5 μM forskolin and ligands diluted in HBSS were added to each well and the plates were incubated at room temperature for 15 min. […] were measured using the Synergy H1 microplate reader (BioTek) and the data presented are means of at least three independent experiments.

[1] = cAMP inhibition, SSTR2 F127A-1 (run 1)
[2] = cAMP inhibition, SSTR2 F127A-2 (run 2)
[3] = cAMP inhibition, SSTR2 F127A-3 (run 3)
[4] = cAMP inhibition, SSTR2 F208A-1 (run 1)
[5] = cAMP inhibition, SSTR2 F208A-2 (run 2)
[6] = cAMP inhibition, SSTR2 F208A-3 (run 3)
[7] = cAMP inhibition, SSTR2 I130A-1 (run 1)
[8] = cAMP inhibition, SSTR2 I130A-2 (run 2)
[9] = cAMP inhibition, SSTR2 I130A-3 (run 3)
[10] = cAMP inhibition, SSTR2 Y205A-1 (run 1)
[11] = cAMP inhibition, SSTR2 Y205A-2 (run 2)
[12] = cAMP inhibition, SSTR2 Y205A-3 (run 3)
[13] = cAMP inhibition, SSTR2 T194H, run 1
[14] = cAMP inhibition, SSTR2 T194H, run 2
[15] = cAMP inhibition, SSTR2 T194H, run 3
[16] = cAMP inhibition, SSTR2 T194H, run 4
[17] = cAMP inhibition, SSTR2 V103N, run 1
[18] = cAMP inhibition, SSTR2 V103N, run 2
[19] = cAMP inhibition, SSTR2 V103N, run 3
[20] = cAMP inhibition, SSTR2 V103N, run 4

## C[C@@H](O)[C@@H]1NC(=O)[C@H](CCCCN)NC(=O)[C@@H](Cc2c[nH]c3ccccc23)NC(=O)[C@H](Cc2ccccc2)NC(=O)[C@@H](NC(=O)[C@H](N)Cc2ccccc2)CSSC[C@@H](C(=O)N[C@H](CO)[C@@H](C)O)NC1=O [octreotide]
W188A-2, run 2
  Top (best-fit value): 109.9
W188A-2, run 2, read-out: EC50 (best-fit value)
  EC50: 0.0722 nM
W188A-3, run 3
  Bottom (best-fit value): 3.856
  LogEC50 (best-fit value): -9.118
  Span (best-fit value): 88.75
  Top (best-fit value): 92.61
W188A-3, run 3, read-out: EC50 (best-fit value)
  EC50: 0.762 nM
W269A-1
  Bottom (best-fit): -8.692
  LogEC50 (best-fit): -8.978
  Span (best-fit): 108.2
  Top (best-fit): 99.53
W269A-1, read-out: EC50 (best-fit)
  EC50: 1.05 nM
W269A-2
  Bottom (best-fit): -48.61
  LogEC50 (best-fit): -9.361
  Span (best-fit): 149.9
  Top (best-fit): 101.3
W269A-2, read-out: EC50 (best-fit)
  EC50: 0.435 nM
W269A-3
  Bottom (best-fit): 12.63
  LogEC50 (best-fit): -8.938
  Span (best-fit): 80.26
  Top (best-fit): 92.88
W269A-3, read-out: EC50 (best-fit)
  EC50: 1.15 nM
Y302A-1
  Best-fit Bottom: -1.091
  Best-fit Span: 74.2
  Best-fit Top: 73.11
  LogEC50: -6.976
Y302A-1, read-out: EC50
  EC50: 106 nM
Y302A-2
  Best-fit Bottom: -6.663
  Best-fit Span: 106.6
  Best-fit Top: 99.95
  LogEC50: -7.6
Y302A-2, read-out: EC50
  EC50: 25.1 nM
Y302A-3
  Best-fit Bottom: -0.9588
  Best-fit Span: 65.18
  Best-fit Top: 64.22
  LogEC50: -6.976
Alanine replacement of F208, F272, Y302, Q126, D122 in SSTR2
  cAMP inhibition potency of mutants: significantly decreased the cAMP inhibition potency
[1]
  Bottom (best-fit value): 3.745
  LogEC50 (best-fit value): -9.177
  Span (best-fit value): 105.4
  Top (best-fit value): 109.1
cAMP inhibition, SSTR2 F127A-1 (run 1), read-out: EC50 (best-fit value)
  EC50: 0.665 nM
[2]
  Bottom (best-fit value): 6.147
  LogEC50 (best-fit value): -8.668
  Span (best-fit value): 104
  Top (best-fit value): 110.1
cAMP inhibition, SSTR2 F127A-2 (run 2), read-out: EC50 (best-fit value)
  EC50: 2.15 nM
[3]
  Bottom (best-fit value): 2.844
  LogEC50 (best-fit value): -8.526
  Span (best-fit value): 104.1
  Top (best-fit value): 107
cAMP inhibition, SSTR2 F127A-3 (run 3), read-out: EC50 (best-fit value)
  EC50: 2.98 nM
[4]
  Bottom (best-fit value): 10.39
  LogEC50 (best-fit value): -7.519
  Top (best-fit value): 89.25
cAMP inhibition, SSTR2 F208A-1 (run 1), read-out: EC50 (best-fit value)
  EC50: 30.3 nM
[5]
  Bottom (best-fit value): -4.181
  LogEC50 (best-fit value): -7.462
  Top (best-fit value): 54.09
cAMP inhibition, SSTR2 F208A-2 (run 2), read-out: EC50 (best-fit value)
  EC50: 34.6 nM
[6]
  Bottom (best-fit value): 13.21
  LogEC50 (best-fit value): -7.519
  Top (best-fit value): 113.5
[7]
  Bottom (best-fit value): 14.54
  LogEC50 (best-fit value): -8.728
  Span (best-fit value): 76.49
  Top (best-fit value): 91.02
cAMP inhibition, SSTR2 I130A-1 (run 1), read-out: EC50 (best-fit value)
  EC50: 1.87 nM
[8]
  Bottom (best-fit value): 3.27
  LogEC50 (best-fit value): -7.739
  Span (best-fit value): 103.8
  Top (best-fit value): 107
cAMP inhibition, SSTR2 I130A-2 (run 2), read-out: EC50 (best-fit value)
  EC50: 18.2 nM
[9]
  Bottom (best-fit value): 1.85
  LogEC50 (best-fit value): -7.833
  Span (best-fit value): 103.6
  Top (best-fit value): 105.4
cAMP inhibition, SSTR2 I130A-3 (run 3), read-out: EC50 (best-fit value)
  EC50: 14.7 nM
[10]
  Bottom (best-fit value): -15.61
  LogEC50 (best-fit value): -10.22
  Span (best-fit value): 114
  Top (best-fit value): 98.43
cAMP inhibition, SSTR2 Y205A-1 (run 1), read-out: EC50 (best-fit value)
  EC50: 0.0606 nM
[11]
  Bottom (best-fit value): -21.77
  LogEC50 (best-fit value): -10.31
  Span (best-fit value): 99.08
  Top (best-fit value): 77.31
cAMP inhibition, SSTR2 Y205A-2 (run 2), read-out: EC50 (best-fit value)
  EC50: 0.0488 nM
[12]
  Bottom (best-fit value): 1.644
  LogEC50 (best-fit value): -9.761
  Span (best-fit value): 161.4
  Top (best-fit value): 163
cAMP inhibition, SSTR2 Y205A-3 (run 3), read-out: EC50 (best-fit value)
  EC50: 0.173 nM
[13]
  LogEC50 (best-fit): -7.55
  Top (best-fit): 86.06
cAMP inhibition, SSTR2 T194H, run 1, read-out: EC50 (best-fit)
  EC50: 28.2 nM
[14]
  LogEC50 (best-fit): -7.55
  Top (best-fit): 86.06
cAMP inhibition, SSTR2 T194H, run 2, read-out: EC50 (best-fit)
  EC50: 28.2 nM
[15]
  LogEC50 (best-fit): -7.274
  Top (best-fit): 99.32
cAMP inhibition, SSTR2 T194H, run 3, read-out: EC50 (best-fit)
  EC50: 53.2 nM
[16]
  LogEC50 (best-fit): -7.828
  Top (best-fit): 111.2
cAMP inhibition, SSTR2 T194H, run 4, read-out: EC50 (best-fit)
  EC50: 14.9 nM
[17]
  LogEC50 (best-fit): -9.644
  Top (best-fit): 94
cAMP inhibition, SSTR2 V103N, run 1, read-out: EC50 (best-fit)
  EC50: 0.227 nM
[18]
  LogEC50 (best-fit): -9.644
  Top (best-fit): 94
cAMP inhibition, SSTR2 V103N, run 2, read-out: EC50 (best-fit)
  EC50: 0.227 nM
[19]
  LogEC50 (best-fit): -9.75
  Top (best-fit): 93.06
cAMP inhibition, SSTR2 V103N, run 3, read-out: EC50 (best-fit)
  EC50: 0.178 nM
[20]
  LogEC50 (best-fit): -9.608
  Top (best-fit): 108.8
cAMP inhibition, SSTR2 V103N, run 4, read-out: EC50 (best-fit)
  EC50: 0.247 nM
